Measurements taken from article PMC4172859, “Positive Darwinian selection is a driving force for the diversification of terpenoid biosynthesis in the genus Oryza” (BMC Plant Biology, 2014).

What was measured:
Assay in all cases: SPME GC-MS product analysis, recombinant E. coli extract
Format in all cases: biochemical
Settings in all cases: 10 uM FPP, 10 mM MgCl2, pH 7.0, 30 °C; mere turnover
ObTPS1 [1] = molecular target: T1, ObTPS1 (Oryza barthii, UniProt A0A0D3GW75)
T1 construct: full-length cDNA in pEXP5-CT/TOPO, E. coli BL21 Codon Plus, desalted extract
T1 sequence (A0A0D3GW75 1-575): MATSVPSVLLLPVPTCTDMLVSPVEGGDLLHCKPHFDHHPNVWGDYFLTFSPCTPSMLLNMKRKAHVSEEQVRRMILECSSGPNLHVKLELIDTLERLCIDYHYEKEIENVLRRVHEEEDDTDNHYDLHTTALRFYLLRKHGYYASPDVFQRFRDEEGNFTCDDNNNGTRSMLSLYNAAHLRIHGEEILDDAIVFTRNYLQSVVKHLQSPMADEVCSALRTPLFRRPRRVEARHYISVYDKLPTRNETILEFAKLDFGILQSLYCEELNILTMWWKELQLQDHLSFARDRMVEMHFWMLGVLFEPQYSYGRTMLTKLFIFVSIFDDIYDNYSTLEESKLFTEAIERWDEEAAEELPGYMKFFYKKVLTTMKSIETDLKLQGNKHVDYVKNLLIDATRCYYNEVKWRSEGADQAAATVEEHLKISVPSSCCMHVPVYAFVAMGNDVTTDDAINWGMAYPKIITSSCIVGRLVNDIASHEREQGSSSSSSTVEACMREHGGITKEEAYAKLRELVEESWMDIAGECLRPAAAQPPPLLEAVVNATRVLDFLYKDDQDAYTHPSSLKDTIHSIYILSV

ObTPS1 [2] = molecular target: T2, ObTPS1 (Oryza barthii, UniProt A0A0D3GW75, F318L/C429G/V433I)
T2 construct: full-length cDNA in pEXP5-CT/TOPO, E. coli BL21 Codon Plus, desalted extract

[3] = molecular target: T3, OryzaTPS1 (O. glumaepatula) (Oryza glumipatula, UniProt A0A076L503)
T3 construct: full-length cDNA in pEXP5-CT/TOPO, E. coli BL21 Codon Plus, desalted extract
T3 sequence (A0A076L503 1-574): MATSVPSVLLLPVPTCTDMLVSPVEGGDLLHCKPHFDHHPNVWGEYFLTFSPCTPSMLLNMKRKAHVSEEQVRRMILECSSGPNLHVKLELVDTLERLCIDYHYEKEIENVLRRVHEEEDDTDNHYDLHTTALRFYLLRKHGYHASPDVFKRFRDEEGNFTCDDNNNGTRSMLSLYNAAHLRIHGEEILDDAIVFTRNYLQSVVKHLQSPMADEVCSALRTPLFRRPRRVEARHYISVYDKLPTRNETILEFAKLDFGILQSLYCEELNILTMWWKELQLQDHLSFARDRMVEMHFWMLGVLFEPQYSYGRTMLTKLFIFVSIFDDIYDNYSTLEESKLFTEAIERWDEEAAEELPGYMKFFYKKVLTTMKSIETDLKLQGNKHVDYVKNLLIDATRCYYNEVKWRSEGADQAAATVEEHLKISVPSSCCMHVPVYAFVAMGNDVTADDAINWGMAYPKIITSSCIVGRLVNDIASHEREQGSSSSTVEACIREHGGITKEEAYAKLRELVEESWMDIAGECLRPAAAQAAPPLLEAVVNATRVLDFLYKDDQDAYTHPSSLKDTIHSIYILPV

OryzaTPS1 (O. nivara) = molecular target: T4, OryzaTPS1 (O. nivara) (Oryza nivara, UniProt A0A076L4Z9)
T4 construct: full-length cDNA in pEXP5-CT/TOPO, E. coli BL21 Codon Plus, desalted extract
T4 sequence (A0A076L4Z9 1-575): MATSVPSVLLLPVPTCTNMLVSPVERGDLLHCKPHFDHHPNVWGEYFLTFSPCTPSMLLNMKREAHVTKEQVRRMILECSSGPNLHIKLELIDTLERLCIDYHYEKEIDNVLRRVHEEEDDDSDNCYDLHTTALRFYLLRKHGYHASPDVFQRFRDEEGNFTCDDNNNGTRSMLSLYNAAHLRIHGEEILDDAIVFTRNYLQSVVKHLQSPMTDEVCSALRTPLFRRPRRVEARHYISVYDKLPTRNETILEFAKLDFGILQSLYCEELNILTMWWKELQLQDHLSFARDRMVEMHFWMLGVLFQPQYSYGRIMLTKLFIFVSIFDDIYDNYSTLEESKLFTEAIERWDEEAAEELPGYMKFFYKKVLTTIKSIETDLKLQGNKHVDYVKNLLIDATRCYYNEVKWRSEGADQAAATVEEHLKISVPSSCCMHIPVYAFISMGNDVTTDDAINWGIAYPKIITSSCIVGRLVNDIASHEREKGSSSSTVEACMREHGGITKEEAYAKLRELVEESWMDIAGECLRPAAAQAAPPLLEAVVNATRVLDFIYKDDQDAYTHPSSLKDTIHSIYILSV

[4] = molecular target: T5, OryzaTPS1 (O. glaberrima) (Oryza glaberrima, UniProt I1QFJ1)
T5 construct: gene LOC127781497; full-length cDNA in pEXP5-CT/TOPO, E. coli BL21 Codon Plus, desalted extract
T5 sequence (I1QFJ1 1-575): T1 sequence (A0A0D3GW75 1-575)

T2 sequence (A0A0D3GW75 entry or part of it F318L/C429G/V433I): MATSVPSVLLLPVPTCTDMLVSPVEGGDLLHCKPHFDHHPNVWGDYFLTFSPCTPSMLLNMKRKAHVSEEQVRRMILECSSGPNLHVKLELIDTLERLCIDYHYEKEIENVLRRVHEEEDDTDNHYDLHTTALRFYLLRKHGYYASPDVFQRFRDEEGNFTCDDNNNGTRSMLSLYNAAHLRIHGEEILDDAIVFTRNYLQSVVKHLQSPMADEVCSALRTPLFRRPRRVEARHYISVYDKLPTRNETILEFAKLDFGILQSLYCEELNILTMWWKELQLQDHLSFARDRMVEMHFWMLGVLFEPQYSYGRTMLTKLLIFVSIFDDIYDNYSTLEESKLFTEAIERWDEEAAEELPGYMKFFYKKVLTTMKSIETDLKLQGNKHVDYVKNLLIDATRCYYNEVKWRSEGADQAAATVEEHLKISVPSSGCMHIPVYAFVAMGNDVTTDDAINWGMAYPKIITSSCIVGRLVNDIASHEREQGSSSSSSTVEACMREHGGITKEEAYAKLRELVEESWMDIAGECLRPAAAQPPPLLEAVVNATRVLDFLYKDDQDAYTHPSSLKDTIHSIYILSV

With `CC(C)=CCC/C(C)=C/CC/C(C)=C/COP(=O)(O)OP(=O)(O)O` [(E, E)-farnesyl diphosphate] the “SPME GC-MS product analysis, recombinant E. coli extract” value (“SPME GC-MS product analysis” for short) (ObTPS1 [1]) was “The enzymes were expressed in E. coli, extracted, and incubated with the substrate (E, E)-farnesyl diphosphate”, the “SPME GC-MS product analysis” value (ObTPS1 [2]) was “The triple mutant ObTPS1-F318L + C429G + V433I produced comparable amounts of germacrene A, germacrene D” and the “SPME GC-MS product analysis” value [3] was “All these proteins were biochemically active”. The “SPME GC-MS product analysis” value (OryzaTPS1 (O. nivara)) was “All these proteins were biochemically active” and the “SPME GC-MS product analysis” value [4] was “All these proteins were biochemically active”.
